Consider eight molecules from publication PMC9719863 (Molecular Metabolism, 2022).

For orientation: IC50 means the concentration that gives 50% inhibition. Low readings indicate greater potency in that assay, high ones weaker potency in that assay.

In assay [1] the target is T1, human GIP receptor (human) (UniProt P48546).
T1 sequence: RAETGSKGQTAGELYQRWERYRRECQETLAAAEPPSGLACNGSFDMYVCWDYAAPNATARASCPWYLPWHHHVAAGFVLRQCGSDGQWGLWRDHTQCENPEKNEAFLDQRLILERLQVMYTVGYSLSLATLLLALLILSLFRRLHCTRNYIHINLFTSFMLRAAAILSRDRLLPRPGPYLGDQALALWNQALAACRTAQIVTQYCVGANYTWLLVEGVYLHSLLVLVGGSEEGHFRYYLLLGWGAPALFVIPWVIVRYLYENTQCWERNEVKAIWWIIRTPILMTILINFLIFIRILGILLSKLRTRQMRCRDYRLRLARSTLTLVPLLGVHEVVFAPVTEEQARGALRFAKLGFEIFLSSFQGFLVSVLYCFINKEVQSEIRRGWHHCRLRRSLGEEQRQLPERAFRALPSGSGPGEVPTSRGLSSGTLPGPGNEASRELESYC

Assay [2] has as its target T2, mouse GIP receptor (mouse) (UniProt Q0P543).
T2 sequence: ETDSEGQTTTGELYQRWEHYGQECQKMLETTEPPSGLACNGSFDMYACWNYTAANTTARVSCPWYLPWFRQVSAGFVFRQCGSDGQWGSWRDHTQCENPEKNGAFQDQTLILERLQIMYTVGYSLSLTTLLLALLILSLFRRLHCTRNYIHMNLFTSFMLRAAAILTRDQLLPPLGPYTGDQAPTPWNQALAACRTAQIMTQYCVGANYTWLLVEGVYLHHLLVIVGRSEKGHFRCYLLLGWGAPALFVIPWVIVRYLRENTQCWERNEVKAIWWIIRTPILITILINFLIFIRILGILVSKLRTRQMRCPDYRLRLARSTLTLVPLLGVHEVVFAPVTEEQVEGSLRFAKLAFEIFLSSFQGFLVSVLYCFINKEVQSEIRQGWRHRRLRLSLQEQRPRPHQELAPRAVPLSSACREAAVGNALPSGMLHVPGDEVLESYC

Assay [3] deals with T3, hGIPR (Homo sapiens, UniProt P48546).
T3 sequence (P48546 22-466): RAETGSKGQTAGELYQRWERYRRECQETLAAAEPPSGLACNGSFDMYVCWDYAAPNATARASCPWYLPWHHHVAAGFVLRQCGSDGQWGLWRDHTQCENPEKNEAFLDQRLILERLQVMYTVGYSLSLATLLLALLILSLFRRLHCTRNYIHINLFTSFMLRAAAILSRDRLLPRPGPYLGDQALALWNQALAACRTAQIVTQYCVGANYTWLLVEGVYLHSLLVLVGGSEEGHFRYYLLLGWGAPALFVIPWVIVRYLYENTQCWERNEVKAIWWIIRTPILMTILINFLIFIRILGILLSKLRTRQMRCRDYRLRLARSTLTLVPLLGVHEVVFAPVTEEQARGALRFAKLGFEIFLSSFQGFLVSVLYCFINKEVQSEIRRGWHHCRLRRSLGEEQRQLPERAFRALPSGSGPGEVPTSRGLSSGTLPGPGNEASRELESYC
It counts as binding.

In assay [4] the target is T3, hGIPR. Nature of the assay: cAMP CRE-luciferase assay in BHK cells expressing GIPR. It counts as cell-based. The following applies: agonist mode, without native ligand.
Assay [5] deals with T4, mGIPR (Mus musculus, UniProt Q0P543).
T4 sequence (Q0P543 19-460): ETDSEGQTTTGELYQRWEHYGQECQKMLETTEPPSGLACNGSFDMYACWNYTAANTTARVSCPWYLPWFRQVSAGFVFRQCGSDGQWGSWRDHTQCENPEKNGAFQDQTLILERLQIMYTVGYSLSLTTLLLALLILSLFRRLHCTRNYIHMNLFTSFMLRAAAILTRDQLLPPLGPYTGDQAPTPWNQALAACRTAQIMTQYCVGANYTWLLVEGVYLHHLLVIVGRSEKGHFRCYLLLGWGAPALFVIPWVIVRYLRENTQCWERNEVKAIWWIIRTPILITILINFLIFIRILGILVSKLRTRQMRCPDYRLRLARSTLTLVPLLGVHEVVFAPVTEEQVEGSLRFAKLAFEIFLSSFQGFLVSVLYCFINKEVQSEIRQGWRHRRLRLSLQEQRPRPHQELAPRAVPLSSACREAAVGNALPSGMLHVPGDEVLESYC
The assay is classed as binding.

The target of assay [6] is T4, mGIPR. Nature of the assay: cAMP CRE-luciferase assay in BHK cells expressing GIPR. The assay is classed as cell-based. To be noted: for Agonism at the mGIPR (cAMP production by peptide alone): agonist mode, without native ligand. A general note: cAMP levels reflect the balance of adenylyl cyclase and phosphodiesterase activity.
For assay [7], the target named is T5, mouse GIP receptor (mouse, UniProt Q0P543 19-460).
T5 sequence: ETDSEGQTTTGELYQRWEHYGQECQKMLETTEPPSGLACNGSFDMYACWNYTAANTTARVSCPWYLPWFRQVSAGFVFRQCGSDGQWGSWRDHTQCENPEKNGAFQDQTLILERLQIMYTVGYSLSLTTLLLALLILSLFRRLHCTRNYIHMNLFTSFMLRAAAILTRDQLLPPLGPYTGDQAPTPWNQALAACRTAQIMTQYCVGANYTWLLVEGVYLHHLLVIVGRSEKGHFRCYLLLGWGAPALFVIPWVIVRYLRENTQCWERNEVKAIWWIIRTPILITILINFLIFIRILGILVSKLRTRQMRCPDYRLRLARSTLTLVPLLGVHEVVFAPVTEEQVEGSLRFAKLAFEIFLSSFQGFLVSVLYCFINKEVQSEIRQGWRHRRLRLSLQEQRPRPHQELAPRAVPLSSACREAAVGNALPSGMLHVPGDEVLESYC
Nature of the assay: cell-based or functional assay.

Assay [8] addresses T6, human GIP receptor (human, UniProt P48546 22-466).
T6 sequence: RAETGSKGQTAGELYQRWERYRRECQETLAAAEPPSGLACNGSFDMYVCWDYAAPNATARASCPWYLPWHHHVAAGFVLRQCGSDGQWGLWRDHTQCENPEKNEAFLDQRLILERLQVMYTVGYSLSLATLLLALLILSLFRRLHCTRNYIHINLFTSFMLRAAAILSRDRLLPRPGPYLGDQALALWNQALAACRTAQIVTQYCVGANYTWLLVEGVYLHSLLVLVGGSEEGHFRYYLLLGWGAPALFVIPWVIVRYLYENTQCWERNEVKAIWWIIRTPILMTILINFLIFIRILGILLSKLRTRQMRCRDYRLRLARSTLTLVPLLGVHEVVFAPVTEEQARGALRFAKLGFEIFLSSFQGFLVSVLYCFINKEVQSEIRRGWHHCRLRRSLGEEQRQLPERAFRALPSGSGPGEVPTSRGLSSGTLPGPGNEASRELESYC
Nature of the assay: cell-based or functional assay.

Assay [9] addresses T5, mouse GIP receptor. Nature of the assay: radioligand binding.
The target of assay [10] is T6, human GIP receptor. Put plainly: radioligand binding.

Like-named read-outs stand apart in the source and are kept apart here. *1 amine or outer side, *2 acyl side, *3 side chain or, on linkers, in order; H or OH if unused. Where a SMILES comes first, the peptide text is derived from it. Where no end group is shown, it is not given here. Side-chain parts run from the residue outwards. [ ]: non-standard residue; d: D form. The star is where a group is joined. C18 diacid = O=C(O)CCCCCCCCCCCCCCCCC(=O)*; γGlu = O=C(O)[C@H](CCC(=O)[*:2])N[*:1]; Palmitoyl = CCCCCCCCCCCCCCCC(=O)*; PhLac = O=C(O)[C@@H](O)Cc1ccccc1; AEEA = NCCOCCOCC(=O)O A value given as a limit tells only on which side of the number the result lay.

Regarding “[Pla6, L14, R18, E21] hGIP(6-31)-K11 (γE-C16) (peptide)”, in assay [1], the maximal % inhibition of GIP-induced cAMP in BHK cells expressing hGIPR was 100%. In addition, the maximal % inhibition of GIP-induced cAMP in BHK cells expressing mGIPR in assay [2] turned out to be 99%.
Consider “mouse GIP (from UniProt P48756 44-85) (ligand)”, for which the EC50 of cAMP production (CRE-luciferase) in BHK cells expressing hGIPR in assay [1] worked out at 0.01 nM.
For “[Pla6, L14, R18, E21] hGIP(6-31) (peptide)”, the maximal % inhibition of GIP-induced cAMP in BHK cells expressing hGIPR in [1] worked out at 98%. Further, in [2], the maximal % inhibition of GIP-induced cAMP in BHK cells expressing mGIPR came to 99%.
Consider `CC[C@H](C)[C@H](NC(=O)[C@H](CO)NC(=O)[C@H](Cc1ccc(O)cc1)NC(=O)[C@H](CC(=O)O)NC(=O)[C@H](CO)NC(=O)[C@@H](NC(=O)[C@@H](O)Cc1ccccc1)[C@@H](C)CC)C(=O)N[C@@H](C)C(=O)N[C@@H](CC(C)C)C(=O)N[C@@H](CC(=O)O)C(=O)N[C@@H](CCCCN)C(=O)N[C@H](C(=O)N[C@@H](CCCNC(=N)N)C(=O)N[C@@H](CCC(N)=O)C(=O)N[C@@H](CCC(N)=O)C(=O)N[C@@H](CCC(=O)O)C(=O)N[C@@H](Cc1ccccc1)C(=O)N[C@H](C(=O)N[C@@H](CC(N)=O)C(=O)N[C@@H](Cc1c[nH]c2ccccc12)C(=O)N[C@@H](CC(C)C)C(=O)N[C@@H](CC(C)C)C(=O)N[C@@H](C)C(=O)N[C@@H](CCC(N)=O)C(=O)N[C@@H](CCCCN)C(=O)NCC(=O)O)C(C)C)[C@@H](C)CC` [Peptide 5, [Pla6, L14, R18, E21] hGIP(6–31)] (H-[PhLac]ISDYSIALDKIRQQEFVNWLLAQKG-OH), for which the concentration for half-maximal inhibition (IC50) was 2.98 ± 1.68 nM against hGIPR [3] and 22.7 ± 7.9 nM on mGIPR [5]. Moreover, the “Agonism at the hGIPR (cAMP production by peptide alone)” value (“Agonism at the hGIPR” below) on hGIPR [4] is given as “no significant agonism”. The “Agonism at the mGIPR (cAMP production by peptide alone)” value (from here on “Agonism at the mGIPR”) on mGIPR [6] is “no significant agonism”.
For the molecule `CC[C@H](C)[C@H](NC(=O)[C@H](CO)NC(=O)[C@H](Cc1ccc(O)cc1)NC(=O)[C@H](CC(=O)O)NC(=O)[C@H](CO)NC(=O)[C@@H](NC(=O)[C@H](Cc1ccccc1)NC(=O)[C@@H](NC(=O)CNC(=O)[C@@H](N)CCC(=O)O)[C@@H](C)O)[C@@H](C)CC)C(=O)N[C@@H](C)C(=O)N[C@@H](CCSC)C(=O)N[C@@H](CC(=O)O)C(=O)N[C@@H](CCCCN)C(=O)N[C@H](C(=O)N[C@@H](Cc1c[nH]cn1)C(=O)N[C@@H](CCC(N)=O)C(=O)N[C@@H](CCC(N)=O)C(=O)N[C@@H](CC(=O)O)C(=O)N[C@@H](Cc1ccccc1)C(=O)N[C@H](C(=O)N[C@@H](CC(N)=O)C(=O)N[C@@H](Cc1c[nH]c2ccccc12)C(=O)N[C@@H](CC(C)C)C(=O)N[C@@H](CC(C)C)C(=O)N[C@@H](C)C(=O)N[C@@H](CCC(N)=O)C(=O)N[C@@H](CCCCN)C(N)=O)C(C)C)[C@@H](C)CC` [Peptide 1, hGIP(3–30), reference compound], on hGIPR [4], the “Agonism at the hGIPR” value is given as “partial agonism”. Also, the IC50 is 35.1 ± 16.9 nM against mGIPR [5] and over 6000 nM at mGIPR [6]. In addition, at mGIPR [6], the “Agonism at the mGIPR” value was “no significant agonism”.
As for `CCCCCCCCCCCCCCCC(=O)N[C@@H](CCC(=O)NCCCC[C@H](NC(=O)[C@H](Cc1ccc(O)cc1)NC(=O)[C@H](CC(=O)O)NC(=O)[C@H](CO)NC(=O)[C@@H](NC(=O)[C@@H](O)Cc1ccccc1)[C@@H](C)CC)C(=O)N[C@H](C(=O)N[C@@H](C)C(=O)N[C@@H](CC(C)C)C(=O)N[C@@H](CC(=O)O)C(=O)N[C@@H](CCCCN)C(=O)N[C@H](C(=O)N[C@@H](CCCNC(=N)N)C(=O)N[C@@H](CCC(N)=O)C(=O)N[C@@H](CCC(N)=O)C(=O)N[C@@H](CCC(=O)O)C(=O)N[C@@H](Cc1ccccc1)C(=O)N[C@H](C(=O)N[C@@H](CC(N)=O)C(=O)N[C@@H](Cc1c[nH]c2ccccc12)C(=O)N[C@@H](CC(C)C)C(=O)N[C@@H](CC(C)C)C(=O)N[C@@H](C)C(=O)N[C@@H](CCC(N)=O)C(=O)N[C@@H](CCCCN)C(=O)NCC(=O)O)C(C)C)[C@@H](C)CC)[C@@H](C)CC)C(=O)O` [Peptide 8, [Pla6, L14, R18, E21] hGIP(6–31)-K11 (γE-C16)] (H-[PhLac]ISDYK([γGlu-Palmitoyl])IALDKIRQQEFVNWLLAQKG-OH), the 50% inhibitory concentration (IC50) on hGIPR [3] is 0.5 ± 0.08 nM; against mGIPR [5], 1.55 ± 0.07 nM. Also, on hGIPR [4], the “Agonism at the hGIPR” value is “negligible cAMP production as agonists”. In addition, the “Agonism at the mGIPR” value at mGIPR [6] was “negligible cAMP production as agonists”.
On to EGTFISDYSIALDKIRQQEFVNWLLAQK-NH2 [[L14, R18, E21] hGIP(3-30) amide], for which the maximal % inhibition of GIP-induced cAMP in BHK cells expressing hGIPR in [1] amounted to 72%. The maximal % inhibition of GIP-induced cAMP in BHK cells expressing mGIPR in assay [2] came out at 86%.
Ac-TFISDYK([AEEA-AEEA-γGlu-C18 diacid])IALDKIRQQEFVNWLLAQKG [[Nα-Ac, L14, R18, E21] hGIP(5-31)-K11(OEG2-γE-C18-OH)]: the “maximal % inhibition of GIP-induced cAMP in BHK cells expressing mGIPR” value with mouse GIP receptor [7] was 100%. Moreover, the “maximal % inhibition of GIP-induced cAMP in BHK cells expressing hGIPR” value with human GIP receptor [8] came to 100%. Also, the figures for the IC50 in the assay with mouse GIP receptor [9] and with human GIP receptor [10] were 24.8 nM and 3.83 nM, respectively.
